In the NIST ThermoML archive (doi:10.1021/je050141m):
Numbers after ± are expanded uncertainties.

Settings: Liquid, Ebulliometric method (Recirculating still)

CCCCCCOC(C)=O [hexyl ethanoate]
Settings	vapor or sublimation pressure [kPa]
397.97 K	25 ± 0.2
403.36 K	30 ± 0.2
408.02 K	35 ± 0.3
412.14 K	40 ± 0.3
416.02 K	45 ± 0.3
419.47 K	50 ± 0.4
422.59 K	55 ± 0.4
425.57 K	60 ± 0.4
428.26 K	65 ± 0.5
430.93 K	70 ± 0.5
433.38 K	75 ± 0.5
435.68 K	80 ± 0.6
437.92 K	85 ± 0.6
439.98 K	90 ± 0.6

CCCCCCO [hexan-1-ol]
Settings	vapor or sublimation pressure [kPa]
391.07 K	25 ± 0.2
395.62 K	30 ± 0.3
399.65 K	35 ± 0.3
403.15 K	40 ± 0.3
406.36 K	45 ± 0.4
409.25 K	50 ± 0.4
411.92 K	55 ± 0.5
414.44 K	60 ± 0.5
416.75 K	65 ± 0.5
418.98 K	70 ± 0.6
421.05 K	75 ± 0.6
423.01 K	80 ± 0.6
424.87 K	85 ± 0.7
426.69 K	90 ± 0.7
